System: PBMCs from HD or T1D patients
Experiment: Quantification of IL-2 specific T cells by IFN-g ELISPOT
Assay type: cell-based, human
Settings: peptides 10 μM/each; T1D patients (n=13) vs HD (n=14) PBMCs
Description: IFN-g production by PBMCs from HD (n=14, closed circles) or T1D patients (n=13, open circles) was quantified by ELISPOT after stimulation with hIL-2 or Proleukin (Pro) peptides (10 μM/each) that gave a positive response in the initial pool screening, intracellular IA-2, adenovirus lysate (AdV) or PHA.

EFLNRWITFSQSIIS (Synthetic fragment) [Pro116-130]
IFN-g production by PBMCs (ELISPOT, IFN-g spot-forming cells/10^6 PBMCs): can induce IFN-g production in a significantly higher frequency of T1D PBMCs compared to HD PBMCs

Source: patent US10114018B2, “IL-2 peptide derivatives, and uses thereof for the diagnosis and treatment of an autoimmune disease” (INSERM (INSTITUT NATIONAL DE LA SANTÉ ET DE LA RECHERCHE …, priority 2014, dated 2018)
